In the NIST ThermoML archive (doi:10.1021/je060271a):
Where “and” joins values, the source holds several entries; their conditions need not be identical. Equal values may be shown once.

Conditions: 323.16 K, Liquid, Vibrating tube method

CCCCCC(=O)OCC(COC(=O)CCCCC)(COC(=O)CCCCC)COC(=O)CCCCC [pentaerythritol tetrahexanoate]
Conditions	mass density
16338 kPa	983.8 kg/m3 and 983.7 kg/m3
16340 kPa	983.7 kg/m3
16341 kPa	983.7 kg/m3 and 983.8 kg/m3
16342 kPa	983.8 kg/m3 and 983.7 kg/m3
16347 kPa	983.6 kg/m3
16370 kPa	983.7 kg/m3
16396 kPa	983.7 kg/m3
16427 kPa	983.7 kg/m3
16452 kPa	983.7 kg/m3
16482 kPa	983.8 kg/m3
16510 kPa	983.8 kg/m3
16538 kPa	983.8 kg/m3
16562 kPa	983.9 kg/m3
16590 kPa	983.8 kg/m3
16620 kPa	983.9 kg/m3
16644 kPa	983.9 kg/m3
16673 kPa	984 kg/m3
16702 kPa	984.1 kg/m3
16730 kPa	984 kg/m3
16755 kPa	984 kg/m3
16784 kPa	984 kg/m3
16815 kPa	984 kg/m3
16841 kPa	984 kg/m3
16870 kPa	984.1 kg/m3
16900 kPa	984.1 kg/m3
16925 kPa	984.2 kg/m3
16955 kPa	984.2 kg/m3
16986 kPa	984.2 kg/m3
17011 kPa	984.1 kg/m3
17041 kPa	984.2 kg/m3
17072 kPa	984.1 kg/m3
17102 kPa	984.2 kg/m3
17128 kPa	984.2 kg/m3
17159 kPa	984.3 kg/m3
17192 kPa	984.3 kg/m3
17216 kPa	984.4 kg/m3
17248 kPa	984.3 kg/m3
17278 kPa	984.4 kg/m3
17303 kPa	984.4 kg/m3
17334 kPa	984.3 kg/m3
17365 kPa	984.4 kg/m3
17396 kPa	984.4 kg/m3
17427 kPa	984.3 kg/m3
17452 kPa	984.4 kg/m3
17481 kPa	984.4 kg/m3
17510 kPa	984.4 kg/m3
17540 kPa	984.5 kg/m3
17565 kPa	984.5 kg/m3
17594 kPa	984.6 kg/m3
17623 kPa	984.6 kg/m3
17652 kPa	984.7 kg/m3
17682 kPa	984.5 kg/m3
17706 kPa	984.6 kg/m3
17736 kPa	984.6 kg/m3
17766 kPa	984.7 kg/m3
17796 kPa	984.7 kg/m3
17826 kPa	984.6 kg/m3
17852 kPa	984.7 kg/m3
17882 kPa	984.9 kg/m3
17913 kPa	984.8 kg/m3
17940 kPa	984.8 kg/m3
17970 kPa	984.8 kg/m3
18001 kPa	984.8 kg/m3
18032 kPa	984.8 kg/m3
18058 kPa	984.9 kg/m3
18088 kPa	984.8 kg/m3
18119 kPa	984.8 kg/m3
18145 kPa	984.9 kg/m3
18174 kPa	984.9 kg/m3
18203 kPa	985 kg/m3
18231 kPa	984.9 kg/m3
18260 kPa	984.9 kg/m3
18284 kPa	985 kg/m3
18312 kPa	984.8 kg/m3
18341 kPa	985 kg/m3
18370 kPa	985 kg/m3
18394 kPa	985 kg/m3
18423 kPa	985 kg/m3
18452 kPa	985.1 kg/m3
18481 kPa	985.1 kg/m3
18510 kPa	985.1 kg/m3
18540 kPa	985 kg/m3
18565 kPa	985.1 kg/m3
18594 kPa	985.2 kg/m3
18624 kPa	985.2 kg/m3
18649 kPa	985.2 kg/m3
18679 kPa	985.1 kg/m3
18709 kPa	985.2 kg/m3
18737 kPa	985.2 kg/m3
18761 kPa	985.2 kg/m3
18789 kPa	985.3 kg/m3
18818 kPa	985.2 kg/m3
18846 kPa	985.2 kg/m3
18876 kPa	985.4 kg/m3
18900 kPa	985.4 kg/m3
18928 kPa	985.4 kg/m3
18958 kPa	985.4 kg/m3
18987 kPa	985.5 kg/m3
19017 kPa	985.5 kg/m3
19042 kPa	985.4 kg/m3
19071 kPa	985.4 kg/m3
19100 kPa	985.6 kg/m3
19129 kPa	985.6 kg/m3
19380 kPa	985.8 kg/m3
19405 kPa	985.5 kg/m3
19434 kPa	985.7 kg/m3
19458 kPa	985.7 kg/m3
19486 kPa	985.6 kg/m3
19516 kPa	985.7 kg/m3
19545 kPa	985.8 kg/m3
19574 kPa	985.7 kg/m3
19599 kPa	985.9 kg/m3
19628 kPa	985.9 kg/m3
19658 kPa	985.9 kg/m3
19688 kPa	985.9 kg/m3
19718 kPa	985.8 kg/m3
19746 kPa	986 kg/m3
19776 kPa	986 kg/m3
19801 kPa	985.9 kg/m3
19830 kPa	986 kg/m3
19861 kPa	986 kg/m3
19891 kPa	986.1 kg/m3
19922 kPa	985.9 kg/m3
19952 kPa	986 kg/m3
19978 kPa	986 kg/m3
20009 kPa	986 kg/m3
20040 kPa	986.1 kg/m3
20067 kPa	986.1 kg/m3
20098 kPa	986.2 kg/m3
20130 kPa	986.1 kg/m3
20162 kPa	986.2 kg/m3
20188 kPa	986.1 kg/m3
20219 kPa	986.2 kg/m3
20251 kPa	986.1 kg/m3
20282 kPa	986.3 kg/m3
20314 kPa	986.1 kg/m3
20339 kPa	986.2 kg/m3
20396 kPa	986.2 kg/m3
20449 kPa	986.4 kg/m3
20477 kPa	986.4 kg/m3
20506 kPa	986.4 kg/m3
20535 kPa	986.4 kg/m3
20558 kPa	986.3 kg/m3
20587 kPa	986.4 kg/m3
20616 kPa	986.5 kg/m3
20645 kPa	986.3 kg/m3
20674 kPa	986.4 kg/m3
20698 kPa	986.4 kg/m3
20727 kPa	986.4 kg/m3
20756 kPa	986.4 kg/m3
20787 kPa	986.5 kg/m3
20811 kPa	986.6 kg/m3
20841 kPa	986.5 kg/m3
20871 kPa	986.5 kg/m3
20925 kPa	986.7 kg/m3
20955 kPa	986.6 kg/m3
20984 kPa	986.5 kg/m3
21013 kPa	986.7 kg/m3
21035 kPa	986.7 kg/m3
21061 kPa	986.7 kg/m3
21087 kPa	986.7 kg/m3
21113 kPa	986.7 kg/m3
21139 kPa	986.7 kg/m3
21161 kPa	986.8 kg/m3
21187 kPa	986.8 kg/m3
21214 kPa	986.8 kg/m3
21236 kPa	986.9 kg/m3
21262 kPa	986.9 kg/m3
21289 kPa	987 kg/m3
21316 kPa	986.8 kg/m3
21342 kPa	986.8 kg/m3
21368 kPa	986.9 kg/m3
21391 kPa	986.9 kg/m3
21418 kPa	987 kg/m3
21445 kPa	987 kg/m3
21467 kPa	986.9 kg/m3
21494 kPa	987 kg/m3
21522 kPa	986.9 kg/m3
21550 kPa	987.1 kg/m3
21572 kPa	987.1 kg/m3
21599 kPa	987.1 kg/m3
21626 kPa	987 kg/m3
21654 kPa	987 kg/m3
21681 kPa	987.1 kg/m3
21708 kPa	987.1 kg/m3
21730 kPa	987.1 kg/m3
21755 kPa	987.2 kg/m3
21780 kPa	987.2 kg/m3
21806 kPa	987.2 kg/m3
21832 kPa	987.2 kg/m3
21854 kPa	987.2 kg/m3
21880 kPa	987.3 kg/m3
21902 kPa	987.2 kg/m3
21928 kPa	987.2 kg/m3
21954 kPa	987.4 kg/m3
21980 kPa	987.2 kg/m3
22005 kPa	987.2 kg/m3
22031 kPa	987.3 kg/m3
22053 kPa	987.4 kg/m3
22079 kPa	987.4 kg/m3
22105 kPa	987.4 kg/m3
22131 kPa	987.3 kg/m3
22154 kPa	987.3 kg/m3
22182 kPa	987.4 kg/m3
22208 kPa	987.5 kg/m3
22231 kPa	987.4 kg/m3
22541 kPa	987.6 kg/m3
22566 kPa	987.6 kg/m3
22591 kPa	987.9 kg/m3
22616 kPa	987.7 kg/m3
22641 kPa	987.7 kg/m3
22688 kPa	987.8 kg/m3
22713 kPa	987.8 kg/m3
22739 kPa	987.7 kg/m3
22760 kPa	987.7 kg/m3
22786 kPa	987.7 kg/m3
22812 kPa	987.8 kg/m3
22838 kPa	987.8 kg/m3
22858 kPa	987.8 kg/m3
22884 kPa	987.8 kg/m3
22910 kPa	987.9 kg/m3
22936 kPa	987.9 kg/m3
22957 kPa	988 kg/m3
22983 kPa	987.9 kg/m3
23009 kPa	988 kg/m3
23035 kPa	987.9 kg/m3
23061 kPa	988 kg/m3
23083 kPa	987.9 kg/m3
23110 kPa	988.1 kg/m3
23136 kPa	988.1 kg/m3
23162 kPa	988 kg/m3
23189 kPa	988.1 kg/m3
23215 kPa	988 kg/m3
23238 kPa	988 kg/m3
23264 kPa	988.1 kg/m3
23292 kPa	988 kg/m3
23319 kPa	988.2 kg/m3
23346 kPa	988.2 kg/m3
23370 kPa	988.1 kg/m3
23397 kPa	988.2 kg/m3
23424 kPa	988.2 kg/m3
23447 kPa	988.3 kg/m3
23473 kPa	988.3 kg/m3
23498 kPa	988.2 kg/m3
23522 kPa	988.3 kg/m3
23542 kPa	988.2 kg/m3
23566 kPa	988.2 kg/m3
23591 kPa	988.3 kg/m3
23615 kPa	988.3 kg/m3
23641 kPa	988.4 kg/m3
23661 kPa	988.3 kg/m3
23686 kPa	988.3 kg/m3
23710 kPa	988.4 kg/m3
23736 kPa	988.4 kg/m3
23761 kPa	988.3 kg/m3
23782 kPa	988.3 kg/m3
23807 kPa	988.4 kg/m3
23832 kPa	988.4 kg/m3
23858 kPa	988.5 kg/m3
23879 kPa	988.4 kg/m3
23904 kPa	988.4 kg/m3
23930 kPa	988.5 kg/m3
23956 kPa	988.4 kg/m3
23981 kPa	988.6 kg/m3
24006 kPa	988.6 kg/m3
24028 kPa	988.5 kg/m3
24053 kPa	988.5 kg/m3
24079 kPa	988.5 kg/m3
24103 kPa	988.5 kg/m3
24128 kPa	988.6 kg/m3
24154 kPa	988.6 kg/m3
24180 kPa	988.6 kg/m3
24202 kPa	988.7 kg/m3
24228 kPa	988.6 kg/m3
24254 kPa	988.6 kg/m3
24281 kPa	988.8 kg/m3
24303 kPa	988.7 kg/m3
24329 kPa	988.8 kg/m3
24355 kPa	988.7 kg/m3
24382 kPa	988.8 kg/m3
24410 kPa	988.7 kg/m3
24431 kPa	988.6 kg/m3
24458 kPa	988.8 kg/m3
24480 kPa	988.9 kg/m3
24507 kPa	988.9 kg/m3
24535 kPa	989 kg/m3
24562 kPa	988.8 kg/m3
24589 kPa	989 kg/m3
24612 kPa	989 kg/m3
